Measurements taken from patent US6376670B1, “Quinoline-indole antimicrobial agents, uses and compositions related thereto” (Sepracor Inc., priority 1997, dated 2002).
Read-outs that look alike come from different tables or passages of the source.

What was measured:
[1] = test system: methicillin-resistant Staphylococcus aureus (MRSA); assay: Determination of MIC values (BHI broth, 96 well microtiter plate); assay type: cell-based; settings: Staphylococcus aureus, MRSA, BHI broth, read-out: MIC MRSA
Experimental: (§1) Stock solutions of compounds are prepared with a concentration of 10 mg/mL. These solutions are then diluted 1:4 to give a concentration of 2.5 mg/mL. The compounds are then serially diluted 1:2 for 6 iterations. The concentrations made for each compound are 2.5, 1.25, 0.625, 0.3125, 0.156, 0.078, and 0.039 mg/mL. A control sample (no compound) is run along with each compound tested. All dilutions are made in DMSO.
(§2) All wells of a 96 well microtiter plate are filled with 100 μL of BHI (Brain-Heart Infusion) broth. Columns on the plate are labeled 1-12, and rows are labeled A-H. Each column of wells is used to test one series of diluted compounds. Into each well of 100 μL of BHI broth, 1 μL of diluted compound is placed for a 1:100 dilution. This makes the final concentration of each drug series 25, 12.5, 6.25, 3.125, 1.56, 0.78, 0.39, and 0 μg/mL.
(§3) Test Organism: A sterile 15 mL screw cap tube is filled wth 3 mL of BHI broth. Next, 2-3 colonies of test organism are inoculated into the tube. The tube is then incubated at 37° C. in a CO2 (approx. 7%) atmosphere jar. The organisms are allowed to grow to the density of a 0.5 McFarland standard (10^8 cells/mL). The organism is then inoculated into each well of the microtiter plate containing the diluted compounds to be tested for MIC. The inoculum is 1 μL in volume and represents 10^5 to 10^6 cells/mL.
(§4) After inoculation the plates are covered and incubated at 37° C. and approx. 7-10% CO2 atmosphere overnight (about 16 hours). The plates are then observed for growth, the well with the lowest concentration of drug and no observable growth represents the well determining the MIC.

[2] = test system: vancomycin-resistant Enterococcus spp. (VRE); assay: as above; assay type: cell-based; settings: Enterococcus, VRE, BHI broth, read-out: MIC VREF
Experimental: as §1, §2, §3, §4

[3] = 16 h, 37° C., overnight (about 16 hours)

Compound | MIC [1, 3] [µg/mL] | MIC [2, 3] [µg/mL] | MIC ([1]; overnight 37° C.) [µg/mL] | MIC ([2]; VREF, overnight 37° C.) [µg/mL]
NCc1ccc(CNC(=O)c2cc(-c3c[nH]c4ccccc34)nc3c(Cl)cccc23)cc1 [Example 160] | < 25 | < 25 |  | 
NCCN(CCNC(=O)c1cccc2nc(-c3c[nH]c4ccc(Br)cc34)ccc12)CCNC(=O)c1cc(-c2c[nH]c3ccc(Br)cc23)nc2ccccc12 [Example 51] | < 7 | < 7 |  | 
O=C(O)c1cc(-c2c[nH]c3ccc(Br)cc23)nc2c(Cl)cccc12 [Example 141] | > 25 | > 25 |  | 
CNCCC(C)N(C)C(=O)c1cc(-c2c[nH]c3ccc(Br)cc23)nc2ccccc12 (centres unmarked) [Example 33] | < 7 | < 7 |  | 
CNC1CCN(C(=O)c2cc(-c3c[nH]c4ccc(Br)cc34)nc3ccccc23)C1 (centres unmarked) [Example 60] | < 25 | < 25 |  | 
O=C(c1cc(-c2c[nH]c3ccc(Br)cc23)nc2ccc(I)cc12)N1CCNCC1 [Example 54] | < 7 | < 7 |  | 
N=C(N)NCCC[C@H](NC(=O)c1cc(-c2c[nH]c3ccc(Br)cc23)nc2ccccc12)C(=O)O [Example 88] | > 25 | > 25 |  | 
Cc1ccc2[nH]cc(-c3ccc4ccccc4n3)c2c1 [Example 188] | > 25 | > 25 |  | 
NCc1ccc(CNC(=O)c2cc(-c3c[nH]c4ccc(Br)cc34)nc3cc4c(cc23)OCCO4)cc1 [Example 150] | > 25 | > 25 |  | 
NC(=O)C(Cc1ccc2ccccc2c1)NC(=O)c1cc(-c2c[nH]c3ccc(Cl)cc23)nc2ccccc12 (centres unmarked) [Example 147] | < 7 | < 7 |  | 
Cc1ccc2[nH]cc(-c3cc(C(=O)NCc4ccc(CN)cc4)c4ccccc4n3)c2c1 [Example 17] | < 25 | > 25 |  | 
Cc1ccc2[nH]cc(-c3ccc4cc(Cl)ccc4n3)c2c1 [Example 198] | > 25 | > 25 |  | 
NCc1ccc(CNC(=O)c2cc(-c3c[nH]c4ccccc34)nc3ccccc23)cc1 [compound 7] | > 25 | > 25 |  | 
CNCc1ccc(CNCc2cc(-c3c[nH]c4ccc(Br)cc34)nc3ccccc23)cc1 [Example 50] | < 7 | < 25 |  | 
O=C(c1cc(C23CC4CC(CC(C4)C2)C3)nc2ccccc12)N1CCNCC1 [Example 25] | > 25 | > 25 |  | 
Cn1cc(-c2cc(C(=O)NCc3ccc(CN)cc3)c3ccccc3n2)c2ccccc21 [Example 12] | > 25 | > 25 |  | 
O=C(c1cc(-c2c[nH]c3ccc(Br)cc23)nc2ccc(Br)cc12)N1CCCNCC1 [Example 126] | < 7 | < 7 |  | 
NCc1ccc(CNC(=O)c2cc(-c3c[nH]c4cccc(Cl)c34)nc3ccccc23)cc1 [Example 21] | > 25 | > 25 |  | 
O=C(O)c1cc(-c2c[nH]c3cc(F)ccc23)nc2ccccc12 [Example 78] | > 25 | > 25 |  | 
NC(=O)c1cc(-c2c[nH]c3ccc(Br)cc23)nc2ccc(C#CCN3CCCCC3)cc12 [Example 137] | < 25 | < 25 |  | 
NCc1ccc(CNC(=O)C2CC(c3c[nH]c4ccccc34)Nc3ccccc32)cc1 (centres unmarked) [Example 91] | > 25 | > 25 |  | 
Cc1[nH]c2ccccc2c1-c1cc(C(=O)NCc2ccc(CN)cc2)c2ccccc2n1 [Example 23] | > 25 | > 25 |  | 
O=C(NCc1ccc(CNC(=O)c2cc(-c3c[nH]c4ccc(Br)cc34)nc3ccccc23)cc1)Nc1ccc(C(F)(F)F)cc1 [Example 85] | < 7 | < 25 |  | 
Oc1ccc2[nH]cc(-c3ccc4cc(Cl)ccc4n3)c2c1 [Example 205] |  |  | < 25 | < 25
COc1ccc2c(c1)c(-c1ccc3cc(Cl)ccc3n1)cn2C [Example 214] |  |  | < 25 | > 25

Compound | MIC [1, 3] [µg/mL] | MIC [2, 3] [µg/mL] | MIC ([1]; overnight 37° C.) [µg/mL] | MIC ([2]; VREF, overnight 37° C.) [µg/mL]
NCc1ccc(CNC(=O)c2cc(-c3c[nH]c4ccc(Br)cc34)nc3ccc(C#CCN4CCOCC4)cc23)cc1 [Example 74] | < 7 | < 25 |  | 
NCc1ccc(CNC(=O)c2cc(-c3ccsc3)nc3ccc(Br)cc23)cc1 [Example 83] | > 25 | > 25 |  | 
O=C(Nc1ccc(Cl)cc1C(F)(F)F)N1CCN(C(=O)c2cc(-c3c[nH]c4ccc(Br)cc34)nc3ccccc23)CC1 [Example 66] | > 25 | > 25 |  | 
CN(C)Cc1ccc(CNC(=O)c2cc(-c3c[nH]c4ccc(Br)cc34)nc3ccccc23)cc1 [Example 92] | < 25 | < 25 |  | 
NCc1ccc(CNC(=O)c2cc(-c3ccoc3)nc3ccccc23)cc1 [Example 82] | > 25 | > 25 |  | 
O=C(Nc1ccc(OC(F)(F)F)cc1)N1CCN(C(=O)c2cc(-c3c[nH]c4ccc(Br)cc34)nc3ccccc23)CC1 [Example 68] | < 7 | < 7 |  | 
NCc1ccc(CNC(=O)c2cc(-c3c[nH]c4ccc(OCc5ccccc5)cc34)nc3ccccc23)cc1 [Example 19] | < 25 | < 25 |  | 
O=C(O)c1cc(-c2c[nH]c3cccc(F)c23)nc2ccccc12 [Example 77] | > 25 | > 25 |  | 
NCc1ccc(CNC(=O)c2cc(-c3c(-c4ccccc4)[nH]c4ccccc34)nc3ccccc23)cc1 [Example 22] | > 25 | > 25 |  | 
Cc1ccc2c(c1)c(-c1ccc3cc(Cl)ccc3n1)cn2C [Example 216] |  |  | < 25 | > 25
Fc1cccc2[nH]cc(-c3ccc4ccccc4n3)c12 [Example 182] | > 25 | > 25 |  | 
O=C(c1cc(-c2c[nH]c3ccc(Br)cc23)nc2ccccc12)N1CCN(Cc2ccccc2)CC1 [Example 45] | > 25 | > 25 |  | 
Cc1cc2nc(-c3c[nH]c4ccc(Br)cc34)cc(C(=O)N3CCCNCC3)c2cc1C [Example 130] | < 7 | < 7 |  | 
NCc1ccc(CNC(=O)c2cc(-c3cccnc3)nc3ccc(Br)cc23)cc1 [Example 84] | < 7 | < 25 |  | 
CN(CC#Cc1ccc2nc(-c3c[nH]c4ccc(Br)cc34)cc(C(=O)NCc3ccc(CN)cc3)c2c1)C1CCCCC1 [Example 237] |  |  | < 7 | < 7
NCC(=O)NCc1ccc(CNC(=O)c2cc(-c3c[nH]c4ccc(Br)cc34)nc3ccccc23)cc1 [Example 71] | < 25 | > 25 |  | 
NCc1ccc(CNC(=O)c2cc(-c3c[nH]c4ccc(Br)cc34)nc3cc(Cl)c(C#CCN4CCCCC4)cc23)cc1 [Example 268] |  |  | < 7 | < 7
NCc1ccc(CNC(=O)c2cc(-c3c[nH]c4ccc(Br)cc34)nc3ccc(C#Cc4ccccc4)cc23)cc1 [Example 101] | < 7 | < 7 |  | 
NCc1ccc(CNC(=O)c2cc(-c3c[nH]c4ccc(Br)cc34)nc3ccc(OC(F)(F)F)cc23)cc1 [Example 55] | < 7 | < 7 |  | 
Cn1cc(-c2ccc3cc(Cl)ccc3n2)c2cc(F)ccc21 [Example 210] |  |  | < 7 | > 25
Cc1[nH]c2ccccc2c1-c1ccc2cc(Cl)ccc2n1 [Example 197] | < 7 | > 25 |  | 
O=C(Nc1ccc(C(F)(F)F)cc1)N1CCN(C(=O)c2cc(-c3c[nH]c4ccc(Br)cc34)nc3ccccc23)CC1 [Example 65] | < 25 | < 7 |  | 
O=C(O)c1cc(-c2c[nH]c3ccccc23)nc2c(Cl)cccc12 [Example 156] | > 25 | > 25 |  | 
NCc1ccc(CNC(=O)c2cc(-c3ccc4ccccc4c3)nc3ccccc23)cc1 [Example 87] | < 25 | < 25 |  | 
